# In ChEMBL document CHEMBL6096707, “UBE2N: Hope on the Cancer Front, How to Inhibit This Promising Target Prospect?” (J Med Chem, 2025):
# What was measured:
# [1] = molecular target: T1, Ubiquitin-conjugating enzyme E2 N (Homo sapiens, UniProt P61088); assay: Inhibition of UBE2N (unknown origin)
# T1 sequence (P61088 whole entry): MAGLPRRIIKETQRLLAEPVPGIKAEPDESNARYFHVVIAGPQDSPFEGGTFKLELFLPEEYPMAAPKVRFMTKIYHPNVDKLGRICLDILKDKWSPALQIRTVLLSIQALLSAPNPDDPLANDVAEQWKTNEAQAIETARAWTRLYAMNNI
# [2] = Inhibition of HDM2/p53 (unknown origin) protein-protein interaction; design: species or system Homo sapiens
# [3] = molecular target: T1, Ubiquitin-conjugating enzyme E2 N; assay: Inhibition of UBE2N (unknown origin) by TR-FRET analysis
SMILES,IC50 [1],IC50 [2],IC50 [3]
COC(=O)c1cc2c(cn1)[nH]c1ccc(O)cc12,16 µM,,
C[C@@H](N)[C@@H](O)C/C=C\C/C=C\C/C=C\C/C=C\C/C=C\C/C=C\CCCCCC[C@H](O)[C@@H](C)N [LEUCETTAMOL A],,150 µM,
O=C(NCC1CCN(Cc2cccc(Cl)c2)CC1)[C@@H]1CCCN(c2ncnc3c2nc2n3CCCC2)C1,,,0.781 µM

# Second part, the compound after the results:
IC50 [1],IC50 [2],IC50 [3],SMILES
0.09 µM,160 µM,,CC1=CC(C)(C)[C@@H](/C=C\[C@@H](C)[C@H]2CC[C@H]3[C@@H]4C[C@H](OS(=O)(=O)O)[C@H]5C[C@H](O)[C@@H](OS(=O)(=O)O)C[C@]5(C)[C@H]4CC[C@]23C)[C@H]1CC[C@@H](C)[C@H]1CC[C@H]2[C@@H]3C[C@H](OS(=O)(=O)O)[C@H]4C[C@H](OS(=O)(=O)O)[C@@H](OS(=O)(=O)O)C[C@]4(C)[C@H]3CC[C@]12C [MANADOSTEROL A]
0.13 µM,,,C=C1CC(C)(C)[C@@H](/C=C\[C@@H](C)[C@H]2CC[C@H]3[C@@H]4C[C@H](OS(=O)(=O)O)[C@H]5C[C@@H](O)CC[C@]5(C)[C@H]4CC[C@]23C)[C@H]1CC(O)[C@@H](C)[C@H]1CC[C@H]2[C@@H]3C[C@H](OS(=O)(=O)O)[C@H]4C[C@H](OS(=O)(=O)O)[C@@H](OS(=O)(=O)O)C[C@]4(C)[C@H]3CC[C@]12C (stereo partly specified)
